Experimental data taken from the NIST ThermoML archive (doi:10.1016/j.jct.2015.03.004).
± gives the expanded uncertainty stated by the source.

Legend:
[1] = refractive index (Na D-line) (dimensionless); conditions: 298.15 K; 101.33 kPa; Liquid; Standard Abbe refractometry
[2] = 101.33 kPa, Liquid; for speed of sound: Sing-around technique in a fixed-path interferometer; for mass density: Vibrating tube method
[3] = mn = molality of the nth substance listed, in mol/kg; conditions: 298.15 K, 101.33 kPa, Liquid; for speed of sound: Sing-around technique in a fixed-path interferometer; for mass density: Vibrating tube method
[4] = refractive index (Na D-line) (dimensionless); mn = molality of the nth substance listed, in mol/kg; conditions: 298.15 K, 101.33 kPa, Liquid, Standard Abbe refractometry

Compound: CCCCCC [hexane]
- refractive index [1]: 1.3722 ± 0.0011
- speed of sound ([2]; 298.15 K): 1077.2 ± 5.2 m/s
- mass density ([2]; 298.15 K): 655.175 ± 2.5 kg/m3

Compound: C1CCCCC1 [cyclohexane] + c1ccsc1
- speed of sound ([3]; m2 = 0): 1253.7 ± 1.5 m/s
- mass density ([3]; m2 = 0): 773.87 ± 0.24 kg/m3
- refractive index ([4]; m2 = 0): 1.4235 ± 0.0005

Compound: c1ccsc1 [thiophene]
- refractive index [1]: 1.5252 ± 0.0005
- speed of sound ([2]; 298.15 K): 1259 ± 1.5 m/s
- mass density ([2]; 298.15 K): 1058.56 ± 0.28 kg/m3
- speed of sound ([2]; 303.15 K): 1258.7 ± 1.5 m/s

Compound: C1CCCCC1 [cyclohexane]
- refractive index [1]: 1.4235 ± 0.0005
- speed of sound ([2]; 298.15 K): 1253.7 ± 1.5 m/s
- mass density ([2]; 298.15 K): 773.87 ± 0.24 kg/m3

Compound: c1ccsc1 [thiophene] + C1CCCCC1
- speed of sound ([3]; m1 = 0.0404): 1253.4 ± 1.5 m/s
- speed of sound ([3]; m1 = 0.0503): 1253.4 ± 1.5 m/s
- speed of sound ([3]; m1 = 0.0602): 1253.3 ± 1.5 m/s
- speed of sound ([3]; m1 = 0.0703): 1253.2 ± 1.5 m/s
- speed of sound ([3]; m1 = 0.0803): 1253.2 ± 1.5 m/s
- speed of sound ([3]; m1 = 0.0902): 1253.1 ± 1.5 m/s
- speed of sound ([3]; m1 = 0.1003): 1253 ± 1.5 m/s
- speed of sound ([3]; m1 = 0.1103): 1252.9 ± 1.5 m/s
- speed of sound ([3]; m1 = 0.1203): 1252.9 ± 1.5 m/s
- speed of sound ([3]; m1 = 0.1303): 1252.8 ± 1.5 m/s
- speed of sound ([3]; m1 = 0.1402): 1252.7 ± 1.5 m/s
- speed of sound ([3]; m1 = 0.1503): 1252.6 ± 1.5 m/s
- speed of sound ([3]; m1 = 0.1603): 1252.6 ± 1.5 m/s
- speed of sound ([3]; m1 = 0.1702): 1252.5 ± 1.5 m/s
- speed of sound ([3]; m1 = 0.1802): 1252.4 ± 1.5 m/s
- mass density ([3]; m1 = 0.0404): 774.512 ± 0.24 kg/m3
- mass density ([3]; m1 = 0.0503): 774.668 ± 0.24 kg/m3
- mass density ([3]; m1 = 0.0602): 774.824 ± 0.24 kg/m3
- mass density ([3]; m1 = 0.0703): 774.983 ± 0.24 kg/m3
- mass density ([3]; m1 = 0.0803): 775.14 ± 0.24 kg/m3
- mass density ([3]; m1 = 0.0902): 775.295 ± 0.24 kg/m3
- mass density ([3]; m1 = 0.1003): 775.452 ± 0.24 kg/m3
- mass density ([3]; m1 = 0.1103): 775.608 ± 0.24 kg/m3
- mass density ([3]; m1 = 0.1203): 775.764 ± 0.24 kg/m3
- mass density ([3]; m1 = 0.1303): 775.917 ± 0.24 kg/m3
- mass density ([3]; m1 = 0.1402): 776.075 ± 0.24 kg/m3
- mass density ([3]; m1 = 0.1503): 776.227 ± 0.24 kg/m3
- mass density ([3]; m1 = 0.1603): 776.38 ± 0.24 kg/m3
- mass density ([3]; m1 = 0.1702): 776.53 ± 0.24 kg/m3
- mass density ([3]; m1 = 0.1802): 776.684 ± 0.24 kg/m3
- refractive index ([4]; m1 = 0.0404): 1.424 ± 0.0005
- refractive index ([4]; m1 = 0.0503): 1.4241 ± 0.0005
- refractive index ([4]; m1 = 0.0602): 1.4242 ± 0.0005
- refractive index ([4]; m1 = 0.0703): 1.4243 ± 0.0005
- refractive index ([4]; m1 = 0.0803): 1.4244 ± 0.0005
- refractive index ([4]; m1 = 0.0902): 1.4245 ± 0.0005
- refractive index ([4]; m1 = 0.1003): 1.4246 ± 0.0005
- refractive index ([4]; m1 = 0.1103): 1.4247 ± 0.0005
- refractive index ([4]; m1 = 0.1203): 1.4248 ± 0.0005
- refractive index ([4]; m1 = 0.1303): 1.4249 ± 0.0005
- refractive index ([4]; m1 = 0.1402): 1.425 ± 0.0005
- refractive index ([4]; m1 = 0.1503): 1.4251 ± 0.0005
- refractive index ([4]; m1 = 0.1603): 1.4252 ± 0.0005
- refractive index ([4]; m1 = 0.1702): 1.4253 ± 0.0005
- refractive index ([4]; m1 = 0.1802): 1.4254 ± 0.0005

Compound: CCOS(=O)(=O)[O-].CCn1cc[n+](C)c1 [1-ethyl-3-methylimidazolium ethyl sulfate]
- refractive index [1]: 1.4784 ± 0.0005
- speed of sound ([2]; 298.15 K): 1680.2 ± 1.6 m/s
- mass density ([2]; 298.15 K): 1237.72 ± 0.43 kg/m3

Compound: CCCCCC [hexane] + c1ccsc1
- speed of sound ([3]; m2 = 0): 1077.2 ± 5.1 m/s
- mass density ([3]; m2 = 0): 655.175 ± 2.5 kg/m3
- refractive index ([4]; m2 = 0): 1.3722 ± 0.0011

Compound: CCCCCCn1cc[n+](C)c1.[Br-] [3-hexyl-1-methyl-1H-imidazolium bromide]
- refractive index [1]: 1.5308 ± 0.0005
- speed of sound ([2]; 298.15 K): 1587.5 ± 1.6 m/s
- mass density ([2]; 298.15 K): 1223.81 ± 0.42 kg/m3

Compound: CCCCCCn1cc[n+](C)c1.[Br-] [3-hexyl-1-methyl-1H-imidazolium bromide] + CCCCCC
- speed of sound ([3]; m1 = 0.1): 1077.4 ± 2.6 m/s
- mass density ([3]; m1 = 0.1): 655.221 ± 0.64 kg/m3
- refractive index ([4]; m1 = 0.1): 1.3737 ± 0.0007

Compound: CCOS(=O)(=O)[O-].CCn1cc[n+](C)c1 [1-ethyl-3-methylimidazolium ethyl sulfate] + C1CCCCC1
- speed of sound ([3]; m1 = 0.0999): 1254.3 ± 1.5 m/s
- mass density ([3]; m1 = 0.0999): 773.884 ± 0.24 kg/m3
- refractive index ([4]; m1 = 0.0999): 1.4237 ± 0.0005

Compound: c1ccsc1 [thiophene] + CCCCCC
- speed of sound ([3]; m1 = 0.0303): 1077.3 ± 5.1 m/s
- speed of sound ([3]; m1 = 0.0354): 1077.3 ± 5.1 m/s
- speed of sound ([3]; m1 = 0.0403): 1077.3 ± 5.1 m/s
- speed of sound ([3]; m1 = 0.0453): 1077.3 ± 5.1 m/s
- speed of sound ([3]; m1 = 0.0504): 1077.4 ± 5.1 m/s
- speed of sound ([3]; m1 = 0.0554): 1077.4 ± 5.1 m/s
- speed of sound ([3]; m1 = 0.0603): 1077.4 ± 5.1 m/s
- speed of sound ([3]; m1 = 0.0654): 1077.4 ± 5.1 m/s
- speed of sound ([3]; m1 = 0.0704): 1077.5 ± 5.1 m/s
- speed of sound ([3]; m1 = 0.0753): 1077.5 ± 5.1 m/s
- speed of sound ([3]; m1 = 0.0804): 1077.5 ± 5.1 m/s
- speed of sound ([3]; m1 = 0.0852): 1077.6 ± 5.1 m/s
- speed of sound ([3]; m1 = 0.0903): 1077.6 ± 5.1 m/s
- speed of sound ([3]; m1 = 0.0954): 1077.6 ± 5.1 m/s
- speed of sound ([3]; m1 = 0.1004): 1077.7 ± 5.1 m/s
- speed of sound ([3]; m1 = 0.1053): 1077.7 ± 5.1 m/s
- speed of sound ([3]; m1 = 0.1104): 1077.8 ± 5.1 m/s
- mass density ([3]; m1 = 0.0303): 655.82 ± 2.5 kg/m3
- mass density ([3]; m1 = 0.0354): 655.927 ± 2.5 kg/m3
- mass density ([3]; m1 = 0.0403): 656.03 ± 2.5 kg/m3
- mass density ([3]; m1 = 0.0453): 656.133 ± 2.5 kg/m3
- mass density ([3]; m1 = 0.0504): 656.239 ± 2.5 kg/m3
- mass density ([3]; m1 = 0.0554): 656.34 ± 2.5 kg/m3
- mass density ([3]; m1 = 0.0603): 656.441 ± 2.5 kg/m3
- mass density ([3]; m1 = 0.0654): 656.545 ± 2.5 kg/m3
- mass density ([3]; m1 = 0.0704): 656.646 ± 2.5 kg/m3
- mass density ([3]; m1 = 0.0753): 656.745 ± 2.5 kg/m3
- mass density ([3]; m1 = 0.0804): 656.847 ± 2.5 kg/m3
- mass density ([3]; m1 = 0.0852): 656.945 ± 2.5 kg/m3
- mass density ([3]; m1 = 0.0903): 657.046 ± 2.5 kg/m3
- mass density ([3]; m1 = 0.0954): 657.146 ± 2.5 kg/m3
- mass density ([3]; m1 = 0.1004): 657.243 ± 2.5 kg/m3
- mass density ([3]; m1 = 0.1053): 657.342 ± 2.4 kg/m3
- mass density ([3]; m1 = 0.1104): 657.441 ± 2.4 kg/m3
- refractive index ([4]; m1 = 0.0303): 1.3725 ± 0.0011
- refractive index ([4]; m1 = 0.0354): 1.3726 ± 0.0011
- refractive index ([4]; m1 = 0.0403): 1.3727 ± 0.0011
- refractive index ([4]; m1 = 0.0453): 1.3728 ± 0.0011
- refractive index ([4]; m1 = 0.0504): 1.3729 ± 0.0011
- refractive index ([4]; m1 = 0.0554): 1.373 ± 0.0011
- refractive index ([4]; m1 = 0.0603): 1.3731 ± 0.0011
- refractive index ([4]; m1 = 0.0654): 1.3732 ± 0.0011
- refractive index ([4]; m1 = 0.0704): 1.3733 ± 0.0011
- refractive index ([4]; m1 = 0.0753): 1.3734 ± 0.0011
- refractive index ([4]; m1 = 0.0804): 1.3735 ± 0.0011
- refractive index ([4]; m1 = 0.0852): 1.3736 ± 0.0011
- refractive index ([4]; m1 = 0.0903): 1.3737 ± 0.0011
- refractive index ([4]; m1 = 0.0954): 1.3738 ± 0.0011
- refractive index ([4]; m1 = 0.1004): 1.3739 ± 0.0011
- refractive index ([4]; m1 = 0.1053): 1.374 ± 0.0011
- refractive index ([4]; m1 = 0.1104): 1.3741 ± 0.0011

Compound: CCCCCCn1cc[n+](C)c1.[Br-] [3-hexyl-1-methyl-1H-imidazolium bromide] + C1CCCCC1
- speed of sound ([3]; m1 = 0.0999): 1254.3 ± 1.5 m/s
- mass density ([3]; m1 = 0.0999): 773.932 ± 0.24 kg/m3
- refractive index ([4]; m1 = 0.0999): 1.4236 ± 0.0005
